Experimental data published in PubChem BioAssay AID179 (DTP/NCI, 2004).
Active and inactive are the calls of the source.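 The calls were made as follows: active = compounds giving half or more protection of infected cells from virus-caused growth loss, again on retest; inactive = the rest.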 Where a SMILES comes first, the peptide text is derived from it. The star is where a group is joined. Boc = CC(C)(C)OC(=O)*

Tested on: CEM cells HIV-1 protection, formazan growth assay
Assay: NCI AIDS Antiviral Assay
Details: for IC50: measured here: growth of uninfected CEM cells
Outline: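 Soluble formazan readout of cell growth; CEM cells ± HIV-1; 5 drug concs. ≥50% protection → retest; ≥50% again = moderately active; reproducible 100% = confirmed active.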

| Structure (SMILES) | EC50 [µM] | IC50 [µM] | outcome |
| --- | --- | --- | --- |
| CCn1c2ccccc2c2cc(NC(=O)c3c(NCCNCCO)nc(=O)[nH]c3C)ccc21 | > 200 | > 200 |  |
| O=C(c1ccccc1)N1C(=O)N(c2ccccc2)C(=Nc2ccccc2)C1=Nc1ccccc1 | > 200 | 19.1 |  |
| O=C(O)C(=O)/C=C\c1ccc(Cl)cc1 | > 617 | 191 |  |
| CSCCC(NC(=O)C(CC(C)C)NC(=O)C1CCCN1C(=O)C(Cc1ccccc1)NC(=O)C(Cc1ccccc1)NC(=O)C(CCC(=O)O)NC(=O)OC(C)(C)C)C(N)=O (configuration not stated) (Boc-EFFPLM-NH2; configuration not given here) | > 282 | > 282 |  |
| COc1ccc(Cc2c(=O)[nH]nc3ccccc23)cc1 | > 70.8 | > 70.8 |  |
| O=C1Cc2c([nH]c3ccc(Br)cc23)-c2ccccc2N1 | > 200 | 2.95 |  |
| CS/C1=C(\c2ccc(C)cc2)N(c2ccccc2)C(=O)C(=O)N(c2ccccc2)/C(c2ccc(C)cc2)=C(/SC)SS1 | > 200 | 47.9 |  |
| CC1(C)C2CCC(=O)C1C(OCc1ccccc1)C2 (configuration not stated) | > 200 | 95.5 |  |
| O=C1CC2C=C(S(=O)(=O)c3ccccc3)C1N(Cc1ccccc1)C2=O (configuration not stated) |  |  | inactive |
| CC1=CC(S)NC(=S)N1 (configuration not stated) | > 200 | > 200 |  |
| O=C1/C(=C/c2ccccc2F)CCc2ccccc21 | > 10.7 | > 10.7 |  |
| [Se]=P(c1ccccc1)(c1ccccc1)c1ccc(C(c2ccccc2)=P(c2ccccc2)(c2ccccc2)c2ccccc2)cc1 | > 10 | 1 |  |
| O=C(CS)NCCNC(=O)CS | > 25.1 | > 25.1 |  |
| COc1ccc(/C=C/C(=O)OC/C=C/c2ccc3c(c2)OCO3)cc1OC | > 200 | 102 |  |
| CC(C)(C)OC(=O)N1CCC(C(=O)O)CC1 | > 200 | > 200 |  |
| OCC(O)C1OC(c2ccco2)OC(CO)C1O (configuration not stated) | > 200 | > 200 |  |
| O=C1NC(c2ccc(O)cc2)C2CCC1C2 (configuration not stated) | > 1150 | 955 |  |
| CCOC(=O)CNC(=O)C(Cc1ccccc1)NC(=O)C(N)CC(=O)O (stereo not drawn) (H-Asp-Phe-Gly-OEt; configuration not given here) | > 200 | > 200 |  |
| O=c1c2cc([N+](=O)[O-])ccc2[nH]n1Cc1ccccn1 | > 200 | > 200 |  |
| COC(=CN=Nc1nc(C#N)c(C#N)[nH]1)OC | > 214 | 162 |  |
| O=[N+]([O-])c1cccc(C2=NC(=S)NC(c3cc(Cl)ccc3O)C2)c1 (configuration not stated) | > 200 | 141 |  |
| CCCCC#COP(=O)(OCC)OCC | > 251 | > 251 |  |
| Cc1cc(N(CCC#N)S(C)(=O)=O)ccc1C=O | > 933 | > 933 |  |

| Structure (SMILES) | EC50 [µM] | IC50 [µM] | outcome |
| --- | --- | --- | --- |
| CN(/N=C/c1cccc2cccnc12)c1ccc([N+](=O)[O-])cc1 |  |  | inactive |
| CCCCCCCCCCCCCCCCSS(=O)(=O)c1ccc(C)cc1 | > 31.6 | > 31.6 |  |
| COC(=O)N[C@H](C(=O)O)C(C)O[Si](C)(C)C(C)(C)C (some centres not stated) | > 851 | > 851 |  |
| C/C(CC(=O)Nc1cccc([N+](=O)[O-])c1)=N/NC(N)=S | > 447 | > 447 |  |
| CCC1C(c2cc(OC)c(OC)c(OC)c2)c2cc3c(cc2OC1N1CCCC1)OCO3 (configuration not stated) | > 200 | 1.12 |  |
| COC(=O)C1=NC(=S)NC(c2ccccc2)C1c1nc2ccccc2s1 (configuration not stated) |  |  | inactive |
| c1ccc2sc(SSSSc3nc4ccccc4s3)nc2c1 | > 200 | 174 |  |
| OCC1NC(CO)C(O)C1O (configuration not stated) |  |  | inactive |
| CC(=O)NC(CSSCC(NC(C)=O)C(=O)O)C(=O)O (configuration not stated) | > 776 | > 776 |  |
| COc1ccc(OCc2nc3ccccc3[nH]2)cc1 | > 200 | > 200 |  |
| COc1cc(C(=O)/C=C/c2ccccc2O)ccc1O | > 132 | 102 |  |
| Cc1cc(C)c2cnnn2n1 | > 1700 | > 1700 |  |
| COc1ccc2c(C)c(CNc3ccccc3)c(=O)oc2c1OC | > 11 | > 11 |  |
| O=S1(=O)CC2C(C1)C1(c3ccccc3)OC2(c2ccccc2)c2ccccc21 (configuration not stated) |  |  | inactive |
| CCCCCC=C(c1ccc(OC)c(C(=O)OC)c1)c1ccc(OC)c(C(=O)OC)c1 | > 200 | 27.5 |  |
| Cc1cc(NC(=O)C(=O)Cc2cnc3ccccc3n2)c(S(=O)(=O)O)cc1Cl | > 589 | > 589 |  |
| C=C=CC(C)(O)c1ccc(-c2ccccc2)cc1 (configuration not stated) | > 191 | 45.7 |  |
| C(=Nc1cnc2ccccc2c1)c1ccc2ccccc2n1 | > 35.5 | 19.1 |  |
| COC(=O)/C=C1\SC(OC)(N(C)c2ccccc2)N(C)C1=O (configuration not stated) | > 155 | 145 |  |
| OCC(S)CS (configuration not stated) | > 151 | 72.4 |  |
| COc1cc(C2c3cc4c(cc3OC(NNS(=O)(=O)c3ccc(C)cc3)C2C)OCO4)cc(OC)c1O (configuration not stated) |  |  | inactive |
| O=C1C=CC(=O)c2c1ccc1c3ccccc3n(Cc3ccccc3)c21 | > 200 | 3.24 |  |
| CC(=O)OCC(=O)[C@@]1(O)CC[C@H]2[C@@H]3CCC4=CC(=O)C=C[C@]4(C)[C@@]3(F)[C@@H](O)C[C@@]21C |  |  | inactive |

| Structure (SMILES) | EC50 [µM] | IC50 [µM] | outcome |
| --- | --- | --- | --- |
| COc1cc(OC)cc(Oc2nc3ccccc3nc2C(=O)O)c1 | > 200 | > 200 |  |
| C1=CN2C(c3ccccc3)=NON(c3ncccn3)C2N=C1 (configuration not stated) | > 46.8 | > 46.8 |  |
| CC[N+](C)(CC)CCCC(C)N1C(=O)C2CCCCC2C1=O (configuration not stated) | > 200 | > 200 |  |
| O=c1c(O)c(-c2ccc(O)c(O)c2)oc2cc(O)cc(O)c12 |  |  | inactive |
| O=c1[nH]c2cc(C(F)(F)F)ccc2nc1Cc1ccccc1 | > 200 | > 200 |  |
| O=C(c1cc(Cl)ccc1Cl)N1CCN(C(=O)c2cc(Cl)ccc2Cl)CC1 | > 200 | > 200 |  |
| COc1ccc(C2OC(=O)c3ccccc32)c2ccccc12 (configuration not stated) | > 46.8 | > 46.8 |  |
| c1ccc(SC(CCCCOC2CCCCO2)Sc2ccccc2)cc1 (configuration not stated) |  |  | inactive |
| O=c1[nH]c(=O)n(C2CC(O)C(CO)O2)cc1NN=NCc1ccccc1 (configuration not stated) | > 200 | > 200 |  |
| O=C(NCCS(=O)(=O)N1C(=O)C2CCCN2C(=O)[C@@H]1Cc1ccccc1)OCc1ccccc1 (some centres not stated) | > 100 | 53.7 |  |
| COC(=O)C1CCc2nnc(-c3ccccc3)n21 (configuration not stated) | 955 | 1020 |  |
| CCOC(=O)N1CCN(c2ccc3ccc(N)nc3n2)CC1 | > 200 | 148 |  |
| CC(=O)O[C@H]1CC[C@@]2(C)C(=CC[C@@H]3C2CC[C@]2(C)Nc4[nH]ncc4CC32)C1 (some centres not stated) |  |  | inactive |
| NC(=O)c1ncn(C2C=CC(CP(=O)(O)O)C2)c1N (configuration not stated) | > 200 | > 200 |  |
| Clc1cc2nc3[nH]c4ccccc4c3nc2cc1Cl | > 83.2 | > 83.2 |  |
| CC(Nc1ccc(Cl)c(Cl)c1)c1ccncc1 (configuration not stated) | > 200 | 28.8 |  |
| COc1cc(SSc2cc(OC)c(OC)cc2C(=O)N2CSC[C@H]2C(=O)O)c(C(=O)N2CSC[C@@H]2C(=O)O)cc1OC | > 200 | > 200 |  |
| CC(=O)NNc1nc(C)c(C(/C=C/c2ccc([N+](=O)[O-])cc2)=N/N)s1 | > 69.2 | > 69.2 |  |
| O=C1OC(=O)C2C1C=C(c1ccccc1)C1C3C=CC(C4C(=O)OC(=O)C34)C21 (configuration not stated) | > 200 | > 200 |  |
| O=C(CC1OC(O)C(Cl)=C1Cl)c1cccnc1 (configuration not stated) | 24.5 | 501 |  |
| CCOC(=O)C1(C/C=C\CBr)CCCC1=O (configuration not stated) | > 200 | 33.9 |  |
| CSc1ccc(NC(=O)Nc2cccc(C)n2)cc1 | > 200 | > 200 |  |
| CCC(=O)C1(c2ccccc2)CCN(C)CC1 | > 1070 |  |  |

| Structure (SMILES) | EC50 [µM] | IC50 [µM] | outcome |
| --- | --- | --- | --- |
| COC(=O)c1nn(-c2ccc(Cl)cc2)c2nc3ccccc3c-2c1C(=O)OC | > 32.4 | > 32.4 |  |
| CN(C)CC1CCC/C(=C\c2ccc(Cl)c(Cl)c2)C1=O (configuration not stated) |  |  | inactive |
| C/C=C1\CC(C(=O)OCC)CCCCCCC1=O (configuration not stated) | > 200 | 17.4 |  |
| CC(=O)N1c2ccccc2C2=NN(C)C(=N)SC21 (configuration not stated) |  |  | inactive |
| O=C1CC(c2[nH]nc3ccccc23)C(=O)N1c1ccccc1 (configuration not stated) |  |  | inactive |
| CCOC(=O)Cc1csc2[n+]1C(=O)/C(=C/c1ccc(OC)c(OC)c1)S2 | > 200 | 20 |  |
| Cc1cc(O)c2c3c1C(=O)Oc1c(CO)c(O)c(C(=O)O)c(c1O3)C=NN=Cc1c3c(c(CO)c(O)c1C(=O)O)OC(=O)c1c(C)cc(O)c(c1O3)C=NN=C2 |  |  | inactive |
| O=c1nc(SSc2ccn(C3OC(CO)C(O)C3O)c(=O)n2)ccn1C1OC(CO)C(O)C1O (configuration not stated) | > 200 | 2.63 |  |
| COc1ccc2c(c1)C(=O)CC=C(C(=O)O)N2 | > 200 | > 200 |  |
| CC(=O)Nc1ccc(S(=O)(=O)Nc2cnc3ccccc3n2)cc1 | > 525 | > 525 |  |
| COC(=O)CC(=O)/C(=C/C(C/C=C(\C(=O)CC(=O)OC)C(=O)OC)OC)C(=O)OC (configuration not stated) | > 200 | > 200 |  |
| CCOP(=O)(OCC)/C(C#N)=C/c1c[nH]c2ccccc12 | > 200 | 178 |  |
| CC(C)C(OC(=O)c1ccc(NCC2=CC(=O)C=CC2=O)cc1)C(C)C | > 20 | 9.12 |  |
| CCC1(C)C=Cc2c(cc(OC)c3c(=O)c4ccccc4n(C)c23)O1 (configuration not stated) | > 200 | 24.5 |  |
| CC(=O)OC1CCC2C3CCc4c(C)ccc(OS(=O)(=O)c5ccccc5)c4C3CCC12C (configuration not stated) | > 200 | > 200 |  |
| COC(=O)[C@H](Cc1ccccc1)NC(=O)N1CCCN(C(=O)N[C@@H](Cc2ccccc2)C(=O)OC)CCCN(C(=O)N[C@@H](Cc2ccccc2)C(=O)OC)CCC1 | > 100 | 27.5 |  |
| Cc1[nH]nc(N)c1C#N | > 200 | 191 |  |
| O=C(Nc1nc2ccccc2n1Cc1ccccc1)C(=O)NC12CC3CC(CC(C3)C1)C2 | > 43.7 | > 43.7 |  |
| Cc1nc(OCc2ccccc2)c2ncn(CCO)c2n1 | > 200 | > 200 |  |
| CC(Cc1ccc(O)c(O)c1)C(C)Cc1ccc(O)c(O)c1 (configuration not stated) | > 200 | 8.91 |  |
| Nc1nc(N)nc(NCCSSCCNc2nc(N)nc(N)n2)n1 | > 200 | 97.7 |  |
| O=NN(CCCl)C(=O)NC1CCCCC1 | > 1070 | 35.5 |  |
